Laboratory results as given in ChEMBL document CHEMBL1130939, “Alkyl side-chain derivatives of sordaricin as potent antifungal agents against yeast” (Bioorg Med Chem Lett, 1998).
Converted amounts (≈) assume the structure as drawn.

System: Saccharomyces cerevisiae
Test: Antifungal activity against Saccharomyces cerevisiae (strain YPH98)
Format: functional, organism-based

SMILES	IC50
CCCCCCCOC[C@]12CC3C(C)CCC3[C@@]3(C=O)CC1C=C(C(C)C)[C@@]23C(=O)O (stereo partly specified)	300 ng/mL (≈ 697 nM)
CCCCOC[C@]12CC3C(C)CCC3[C@@]3(C=O)CC1C=C(C(C)C)[C@@]23C(=O)O (stereo partly specified)	0.1 ng/mL (≈ 0.257 nM)
CC(C)COC[C@]12CC3C(C)CCC3[C@@]3(C#N)CC1C=C(C(C)C)[C@@]23C(=O)O (stereo partly specified)	30 ng/mL (≈ 77.8 nM)
CCCCCCOC[C@]12CC3C(C)CCC3[C@@]3(C=O)CC1C=C(C(C)C)[C@@]23C(=O)O (stereo partly specified)	15 ng/mL (≈ 36 nM)
CC(C)CCOC[C@]12CC3C(C)CCC3[C@@]3(C#N)CC1C=C(C(C)C)[C@@]23C(=O)O (stereo partly specified)	0.01 ng/mL (≈ 0.025 nM)
CCCCCOC[C@]12CC3C(C)CCC3[C@@]3(C#N)CC1C=C(C(C)C)[C@@]23C(=O)O (stereo partly specified)	0.01 ng/mL (≈ 0.025 nM)
CCCCCOC[C@]12CC3C(C)CCC3[C@@]3(C=O)CC1C=C(C(C)C)[C@@]23C(=O)O (stereo partly specified)	0.01 ng/mL (≈ 0.0248 nM)
CCOC[C@]12CC3C(C)CCC3[C@@]3(C#N)CC1C=C(C(C)C)[C@@]23C(=O)O (stereo partly specified)	500 ng/mL (≈ 1400 nM)
CCCOC[C@]12CC3C(C)CCC3[C@@]3(C=O)CC1C=C(C(C)C)[C@@]23C(=O)O (stereo partly specified)	60 ng/mL (≈ 160 nM)
CCCCCCCCCOC[C@]12CC3C(C)CCC3[C@@]3(C#N)CC1C=C(C(C)C)[C@@]23C(=O)O (stereo partly specified)	1000 ng/mL (≈ 2190 nM)
CCOC[C@]12CC3C(C)CCC3[C@@]3(C=O)CC1C=C(C(C)C)[C@@]23C(=O)O (stereo partly specified)	60 ng/mL (≈ 166 nM)
CC(C)COC[C@]12CC3C(C)CCC3[C@@]3(C=O)CC1C=C(C(C)C)[C@@]23C(=O)O (stereo partly specified)	0.1 ng/mL (≈ 0.257 nM)
CCCOC[C@]12CC3C(C)CCC3[C@@]3(C#N)CC1C=C(C(C)C)[C@@]23C(=O)O (stereo partly specified)	90 ng/mL (≈ 242 nM)
CCCCOC[C@]12CC3C(C)CCC3[C@@]3(C#N)CC1C=C(C(C)C)[C@@]23C(=O)O (stereo partly specified)	30 ng/mL (≈ 77.8 nM)
COC[C@]12CC3C(C)CCC3[C@@]3(C=O)CC1C=C(C(C)C)[C@@]23C(=O)O (stereo partly specified)	100 ng/mL (≈ 289 nM)
CCCCCCCOC[C@]12CC3C(C)CCC3[C@@]3(C#N)CC1C=C(C(C)C)[C@@]23C(=O)O (stereo partly specified)	100 ng/mL (≈ 234 nM)
COC[C@]12CC3C(C)CCC3[C@@]3(C#N)CC1C=C(C(C)C)[C@@]23C(=O)O (stereo partly specified)	1000 ng/mL (≈ 2910 nM)
CCCCCCCCOC[C@]12CC3C(C)CCC3[C@@]3(C#N)CC1C=C(C(C)C)[C@@]23C(=O)O (stereo partly specified)	200 ng/mL (≈ 453 nM)
CCCCCCCCCOC[C@]12CC3C(C)CCC3[C@@]3(C=O)CC1C=C(C(C)C)[C@@]23C(=O)O (stereo partly specified)	50000 ng/mL (≈ 109000 nM)
CCCCCCOC[C@]12CC3C(C)CCC3[C@@]3(C#N)CC1C=C(C(C)C)[C@@]23C(=O)O (stereo partly specified)	0.3 ng/mL (≈ 0.725 nM)
CC(C)CCOC[C@]12CC3C(C)CCC3[C@@]3(C=O)CC1C=C(C(C)C)[C@@]23C(=O)O (stereo partly specified)	0.01 ng/mL (≈ 0.0248 nM)
CC(C)C1=CC2C[C@]3(C#N)C4CCC(C)C4C[C@]2(CO)[C@]13C(=O)O (stereo partly specified)	20000 ng/mL (≈ 60700 nM)
CCCCCCCCOC[C@]12CC3C(C)CCC3[C@@]3(C=O)CC1C=C(C(C)C)[C@@]23C(=O)O (stereo partly specified)	400 ng/mL (≈ 900 nM)
COC1C(C)OC(OCC23CC4C(C)CCC4[C@@]4(C#N)C[C@@H]2C=C(C(C)C)[C@@]34C(=O)O)C(O)C1O (stereo partly specified)	2000 ng/mL (≈ 4080 nM)
CC(C)C1=CC2C[C@]3(C=O)C4CCC(C)C4C[C@]2(CO)[C@]13C(=O)O (stereo partly specified) [SORDARICIN]	> 250000 ng/mL
CO[C@H]1[C@@H](O)[C@H](O)[C@H](OC[C@@]23C[C@@H]4[C@H](C)CC[C@H]4[C@@]4(C=O)CC2C=C(C(C)C)[C@@]34C(=O)O)O[C@@H]1C [SORDARIN]	10000 ng/mL (≈ 20300 nM)
